According to US12186317B2, “Inhibitors of alpha-amino-beta-carboxymuconic acid semialdehyde decarboxylase” (TES Pharma S.r.l., priority 2018, dated 2025):

Target: T1, hACMSD (ACMSD1) (Homo sapiens, UniProt Q8TDX5)
T1 construct: made in house; host or cells: Pichia pastoris
Experiment: Determination of ACMSD1 inhibition, spectrophotometrical in vitro assay (conversion of 3OH-anthranilic acid into ACMS)
Format: biochemical
Conditions: HAA concentration of 10 μM; recombinant ACMSD1 from Pichia pastoris; 25° C.; absorbance at 360 nm
Procedure: The activity of compounds as inhibitors of ACMSD1 is determined in a spectrophotometrical in vitro assay. The pre-assay mixture is incubated and a compound of Formula (I) or (II), or a pharmaceutically acceptable salt thereof, and ACMSD1 solution is then added. The effect of ACMS concentration on the enzyme activity is investigated by varying 3-hydroxyanthranilic acid (30H-HA) concentration in the pre-assay mixture. Kinetic parameters are calculated from the initial velocity data using a Lineweaver-Burk plot.
The pre-assay mixture consisting of 3-hydroxyanthranilic acid (30H-HA), 3-hydroxyanthranilic acid, 3,4-diOxygenase (HAO), and a dialyzed crude extract of E. coli BL21 (DE3) cells expressing the recombinant enzyme, was incubated at 25° C. with monitoring of the increase in absorbance at 360 nm due to the formation of ACMS from 30H-HA. After the reaction was completed within ˜2 mins, an aliquot of ACMSD1 solution (prepared and purified from Pichia pastoris overexpressing the recombinant enzyme) was added, and the decrease in absorbance at 360 nm was followed at 15 second intervals. The effect of ACMS concentration on the enzyme activity was investigated by varying 30H-HA concentration from 2 to 20 μM. Kinetic parameters were calculated from the initial velocity data by using the Lineweaver-Burk plot.
The rate of the decrease in absorbance caused by ACMSD1 was calculated by subtracting that of the control reaction mixture without ACMSD from that described above. One unit of ACMSD activity was indicated as the amount of enzyme that converts 1 mmol of ACMS per minute at 25° C.
The enzymatic activity was determined at a HAA concentration of 10 μM in the presence of the compounds in Table 1 below. […] In Table 1, A is <0.1 μM; B is 0.1 to 1 μM; C is 1 to 10 μM; and D is >10 μM.

T1 sequence (Q8TDX5 whole entry): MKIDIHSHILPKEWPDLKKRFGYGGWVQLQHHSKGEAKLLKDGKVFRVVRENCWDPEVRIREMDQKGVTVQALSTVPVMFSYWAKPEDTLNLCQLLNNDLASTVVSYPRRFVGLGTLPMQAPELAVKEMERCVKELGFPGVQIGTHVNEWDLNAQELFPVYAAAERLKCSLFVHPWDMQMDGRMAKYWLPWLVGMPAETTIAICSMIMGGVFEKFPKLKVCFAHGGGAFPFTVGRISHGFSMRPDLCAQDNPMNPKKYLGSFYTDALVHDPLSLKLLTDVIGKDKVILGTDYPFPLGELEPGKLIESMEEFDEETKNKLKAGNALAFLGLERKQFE

SMILES | IC50 [nM]
N#Cc1c(-c2cccs2)nc(SCc2cccc(-c3nn[nH]n3)c2)[nH]c1=O [I-43] | < 100
N#Cc1c(-c2cccs2)nc(N[C@H]2CC[C@H](C(=O)O)CC2)[nH]c1=O [I-46] | > 10000
N#Cc1c(-c2cccs2)nc(NCc2cccc(C(=O)O)c2)[nH]c1=O [I-48] | 1000 to 10000
N#Cc1c(-c2cccs2)nc(NCc2cccc(Cc3nnn[nH]3)c2)[nH]c1=O [I-49] | < 100
N#Cc1c(-c2cccs2)nc(NCc2cccc(CC(=O)O)c2)[nH]c1=O [I-50] | 1000 to 10000
N#Cc1c(-c2cccs2)nc(NCc2ccc(-c3nnn[nH]3)cc2)[nH]c1=O [I-51] | 100 to 1000
